These results are taken from patent US8178658B2 (Dow AgroSciences, LLC, priority 2008, dated 2012).

In assay [1] the test system is beet armyworm (BAW; Spodoptera exigua: Lepidoptera). As to the kind of experiment: 128-well diet tray assay on beet armyworm (BAW 50). The following applies: 128-well diet tray assay, 50 μg/cm^2 of test compound on diet, second instar BAW larvae, mortality class. The format is in vivo. The method in brief: (§1)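 Two diet-incorporation-style surface tests were run. Eggs infested treated diet (12 μg/well) in plates incubated dark at 29° C, with mortality taken on day 6 from six replicates. Separately, second-instar larvae fed on treated diet (50 μg/cm^2) at 25° C, 14:10 L:D, with six-day mortality averaged over eight wells.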

For assay [2] the test system is unchanged. Kind of assay: 96-well microtiter plate-based high throughput (HTS) diet bioassay on beet armyworm (BAW HTS). The format is in vivo. Particulars: BAW eggs, 12 μg test compound per well, mortality at 6 d post-treatment, mortality class. The method in brief: as §1
Setting [3] is: 96-well microtiter plate HTS diet assay.

With `CCOC1C(OC)C(C)OC(ON=Cc2ccc(-c3ncn(-c4ccc(Cl)nn4)n3)cc2)C1OC` (stereo not shown) [Compound 117], the “BAW 50 ug/cm2” value in assay [1] was “B (either (1) the compound was tested and less than 50 percent mortality was observed or (2) the compound was not tested)”. The “BAW HTS” value in assay [2] (96-well HTS diet bioassay) is “B (either (1) the compound was tested and less than 50 percent mortality was observed or (2) the compound was not tested)”; in assay [2] (setting [3]) it was “B (either (1) the compound was tested and less than 50 percent mortality was observed or (2) the compound was not tested)”.

On to `CCCOC1C(OC)C(C)OC(ON=Cc2ccc(-c3ncn(-c4ccc(C(F)(F)F)cn4)n3)cc2)C1OC` (stereo not shown) [Compound 118], for which, in assay [1], the “BAW 50 ug/cm2” value was “A (the compound was tested and at least 50 percent mortality was observed)”. The “BAW HTS” value in assay [2] (96-well HTS diet bioassay) was “B (either (1) the compound was tested and less than 50 percent mortality was observed or (2) the compound was not tested)”; in assay [2] (setting [3]) it was “B (either (1) the compound was tested and less than 50 percent mortality was observed or (2) the compound was not tested)”.

Turning to `COCC1OC(ON=Cc2ccc(-c3ncn(-c4ccc(OC(F)(F)C(F)(F)F)cc4)n3)cc2)C(OC)C(OC)C1OC` (stereo not shown) [Compound 119], in assay [1], the “BAW 50 ug/cm2” value is “A (the compound was tested and at least 50 percent mortality was observed)”. Further, the “BAW HTS” value in assay [2] (96-well HTS diet bioassay) is “A (the compound was tested and at least 50 percent mortality was observed)”; in assay [2] (setting [3]), “A (the compound was tested and at least 50 percent mortality was observed)”.

As to `CCOC1C(OC)C(C)OC(ON=Cc2ccc(-c3ncn(-c4ccc(OC(F)(F)F)cc4)n3)cc2)C1OC` (stereo not shown) [Compound 120], the “BAW 50 ug/cm2” value in assay [1] is “A (the compound was tested and at least 50 percent mortality was observed)”. The “BAW HTS” value in assay [2] (96-well HTS diet bioassay) was “A (the compound was tested and at least 50 percent mortality was observed)”; in assay [2] (setting [3]), “A (the compound was tested and at least 50 percent mortality was observed)”.

Regarding `CCOC1C(OC)C(C)OC(ON=Cc2ccc(-c3ncn(-c4ccc(C(F)(F)F)nc4)n3)cc2)C1OC` (stereo not shown) [Compound 121], the “BAW 50 ug/cm2” value in assay [1] is “A (the compound was tested and at least 50 percent mortality was observed)”. Further, the “BAW HTS” value was “B (either (1) the compound was tested and less than 50 percent mortality was observed or (2) the compound was not tested)” in assay [2] (96-well HTS diet bioassay); “B (either (1) the compound was tested and less than 50 percent mortality was observed or (2) the compound was not tested)” in assay [2] (setting [3]).

`CCOC1C(OC)C(C)OC(ON=Cc2ccc(-c3ncn(-c4ccc(OC(F)(F)F)cc4)n3)cn2)C1OC` (stereo not shown) [Compound 123]: the “BAW 50 ug/cm2” value in assay [1] was “A (the compound was tested and at least 50 percent mortality was observed)”. Also, the “BAW HTS” value in assay [2] (96-well HTS diet bioassay) was “B (either (1) the compound was tested and less than 50 percent mortality was observed or (2) the compound was not tested)”; in assay [2] (setting [3]), “B (either (1) the compound was tested and less than 50 percent mortality was observed or (2) the compound was not tested)”.

As for `CCOC1C(OC)C(C)OC(ON=Cc2ccc(-c3ncn(-c4ccc(OC(F)(F)C(F)(F)Br)cc4)n3)cc2)C1OC` (stereo not shown) [Compound 124], the “BAW 50 ug/cm2” value in assay [1] is “A (the compound was tested and at least 50 percent mortality was observed)”. Also, the “BAW HTS” value in assay [2] (96-well HTS diet bioassay) was “B (either (1) the compound was tested and less than 50 percent mortality was observed or (2) the compound was not tested)”; in assay [2] (setting [3]), “B (either (1) the compound was tested and less than 50 percent mortality was observed or (2) the compound was not tested)”.

In the case of `CCOc1ccc(-n2cnc(-c3ccc(C=NOC4OC(C)C(OC)C(OCC)C4OC)cc3)n2)cc1` (stereo not shown) [Compound 125], in assay [1], the “BAW 50 ug/cm2” value is “A (the compound was tested and at least 50 percent mortality was observed)”. Moreover, the “BAW HTS” value is “B (either (1) the compound was tested and less than 50 percent mortality was observed or (2) the compound was not tested)” in assay [2] (96-well HTS diet bioassay); “B (either (1) the compound was tested and less than 50 percent mortality was observed or (2) the compound was not tested)” in assay [2] (setting [3]).

Consider `CCOC1C(OC)C(C)OC(ON=Cc2ccc(-c3ncn(-c4ccc(C#N)cc4)n3)cc2)C1OC` (stereo not shown) [Compound 126], for which the “BAW 50 ug/cm2” value in assay [1] is “A (the compound was tested and at least 50 percent mortality was observed)”. Further, the “BAW HTS” value in assay [2] (96-well HTS diet bioassay) is “B (either (1) the compound was tested and less than 50 percent mortality was observed or (2) the compound was not tested)”; in assay [2] (setting [3]) it was “B (either (1) the compound was tested and less than 50 percent mortality was observed or (2) the compound was not tested)”.

Consider `CCOC1C(OC)C(C)OC(ON=Cc2ccc(-c3ncn(-c4ccc([N+](=O)[O-])cc4)n3)cc2)C1OC` (stereo not shown) [Compound 127], for which the “BAW 50 ug/cm2” value in assay [1] is “A (the compound was tested and at least 50 percent mortality was observed)”. Besides, the “BAW HTS” value in assay [2] (96-well HTS diet bioassay) was “B (either (1) the compound was tested and less than 50 percent mortality was observed or (2) the compound was not tested)”; in assay [2] (setting [3]) it was “B (either (1) the compound was tested and less than 50 percent mortality was observed or (2) the compound was not tested)”.

Consider `CCOC1C(OC)C(C)OC(ON=Cc2ccc(-c3nc(-c4ccc(OC(F)(F)F)cc4)ns3)cc2)C1OC` (stereo not shown) [Compound 128], for which, in assay [1], the “BAW 50 ug/cm2” value was “A (the compound was tested and at least 50 percent mortality was observed)”. Besides, the “BAW HTS” value in assay [2] (96-well HTS diet bioassay) is “B (either (1) the compound was tested and less than 50 percent mortality was observed or (2) the compound was not tested)”; in assay [2] (setting [3]), “B (either (1) the compound was tested and less than 50 percent mortality was observed or (2) the compound was not tested)”.

Take `CCOC1C(OC)C(C)OC(ON=Cc2ccc(-c3nsc(-c4ccc(OC(F)(F)F)cc4)n3)cc2)C1OC` (stereo not shown) [Compound 129]: in assay [1], the “BAW 50 ug/cm2” value was “A (the compound was tested and at least 50 percent mortality was observed)”. Besides, the “BAW HTS” value in assay [2] (96-well HTS diet bioassay) was “B (either (1) the compound was tested and less than 50 percent mortality was observed or (2) the compound was not tested)”; in assay [2] (setting [3]), “B (either (1) the compound was tested and less than 50 percent mortality was observed or (2) the compound was not tested)”.

`COC1C(C)OC(ON=Cc2ccc(-n3nnc(-c4ccc(C(F)(F)F)cc4)n3)cc2)C(OC)C1OC` (stereo not shown) [Compound 131]: the “BAW 50 ug/cm2” value in assay [1] was “B (either (1) the compound was tested and less than 50 percent mortality was observed or (2) the compound was not tested)”. The “BAW HTS” value in assay [2] (96-well HTS diet assay) was “B (either (1) the compound was tested and less than 50 percent mortality was observed or (2) the compound was not tested)”; in assay [2] (setting [3]), “B (either (1) the compound was tested and less than 50 percent mortality was observed or (2) the compound was not tested)”.

As to `CO[C@@H]1[C@@H](OC)[C@H](C)O[C@@H](O/N=C/c2ccc(-c3ccnc(-c4ccc(OC(F)(F)F)cc4)c3)cc2)[C@@H]1OC` [Compound 132], the “BAW 50 ug/cm2” value in assay [1] was “A (the compound was tested and at least 50 percent mortality was observed)”. For the same compound, the pest or weed control at 50 µg/cm2, 50 µg/cm2 in assay [1] (Spodoptera exigua, 144 h, read-out: BAW 50 ug/cm2) was greater than 50%. Moreover, the “BAW HTS” value in assay [2] (setting [3]) is “B (either (1) the compound was tested and less than 50 percent mortality was observed or (2) the compound was not tested)”. Moreover, in assay [2] (Spodoptera exigua, 144 h, 96-well HTS diet assay, read-out: BAW HTS), the pest or weed control at 12 µg/well, 12 µg/well is less than 50%.
